Source: publication PMC6095594, “Pre-clinical evaluation of quinoxaline-derived chalcones in tuberculosis” (PLoS ONE, 2018)
Values after ≈ are worked out from the molar mass of the structure shown. Where two headings read alike, the source gives them in different places.

How the values were obtained:
[1] = test system: M. tuberculosis drug-resistant clinical isolate CDCT-10; type: cell-based, Mycobacterium tuberculosis
[2] = test system: M. tuberculosis pNIP::KatG(S315T); type: cell-based, Mycobacterium tuberculosis
[3] = test system: M. tuberculosis drug-resistant clinical isolate CDCT-27; type: cell-based, Mycobacterium tuberculosis
[4] = test system: M. tuberculosis pNIP::InhA(S94A); type: cell-based, Mycobacterium tuberculosis
[5] = test system: M. tuberculosis drug-resistant clinical isolate CDCT-16; type: cell-based, Mycobacterium tuberculosis
[6] = test system: M. tuberculosis drug-resistant clinical isolate CDCT-16; details: cited from earlier work
[7] = test system: M. tuberculosis drug-resistant clinical isolate CDCT-10; details: cited from earlier work
[8] = test system: M. tuberculosis drug-resistant clinical isolate CDCT-27; details: cited from earlier work

SMILES | MIC [1] [µg/mL] | MIC [2] [µg/mL] | MIC [3] [µg/mL] | MIC [4] [µg/mL] | MIC [5] [µg/mL] | MIC [6] [µg/mL] | MIC [7] [µg/mL] | MIC [8] [µg/mL]
NNC(=O)c1ccncc1 [INH, isoniazid, reference compound] | 6.25 (≈ 45.6 µM) | >100 | 25 (≈ 182 µM) | 12.5 (≈ 91.1 µM) | >100 |  |  | 
COc1cccc(C(=O)/C=C/c2ccc3nccnc3c2)c1 [N23] | 2.5 (≈ 8.61 µM) | 1.25 (≈ 4.31 µM) | 5 (≈ 17.2 µM) | 2.5 (≈ 8.61 µM) | 5 (≈ 17.2 µM) |  |  | 
COc1cc(C(=O)/C=C/c2ccc3nccnc3c2)cc(OC)c1OC [N15] | 3.13 (≈ 8.93 µM) | 3.13 (≈ 8.93 µM) | 6.25 (≈ 17.8 µM) | 3.13 (≈ 8.93 µM) | 6.25 (≈ 17.8 µM) |  |  | 
CO[C@H]1/C=C/O[C@@]2(C)Oc3c(C)c(O)c4c(O)c(c(/C=N/N5CCN(C)CC5)c(O)c4c3C2=O)NC(=O)/C(C)=C\C=C\[C@H](C)[C@H](O)[C@@H](C)[C@@H](O)[C@@H](C)[C@H](OC(C)=O)[C@@H]1C [RIF, Rifampicin] |  |  |  |  |  | >100 | >100 | <0.2
COc1ccc(OC)c(C(=O)/C=C/c2ccc3nccnc3c2)c1 [N9] | 1.56 (≈ 4.87 µM) | 1.56 (≈ 4.87 µM) | 3.13 (≈ 9.77 µM) | 3.13 (≈ 9.77 µM) | 3.13 (≈ 9.77 µM) |  |  | 
